Measured values: ChEMBL document CHEMBL5126512, “Current status of carbazole hybrids as anticancer agents” (Eur J Med Chem, 2022)

Experiments:
MCF7 [1] = test: Anticancer activity against human MCF7 cells assessed as cell growth inhibition measured after 24 hrs by MTT assay; format: functional, cell-based; conditions: MCF7, 24 h
[2] = Cytotoxicity against human HFB4 cells assessed as cell growth inhibition measured after 24 hrs by MTT assay; format: toxicity, cell-based
[3] = molecular target: Urokinase-type plasminogen activator (Homo sapiens, UniProt P00749); test: Inhibition of urokinase plasminogen activator in human MCF7 cells measured after 24 hrs by ELISA method; format: cell-based
MDA-MB-231 [4] = test: Antiproliferative activity against human MDA-MB-231 cells assessed as cell growth inhibition by MTT assay; format: functional, cell-based
HeLa [5] = test: Antiproliferative activity against human HeLa cells assessed as cell growth inhibition by MTT assay; format: functional, cell-based
MCF7 [6] = test: Antiproliferative activity against human MCF7 cells assessed as cell growth inhibition by MTT assay; format: functional, cell-based
A549 [7] = test: Antiproliferative activity against human A549 cells assessed as cell growth inhibition by MTT assay; format: functional, cell-based
COLO 205 = test: Antiproliferative activity against human COLO 205 cells assessed as cell growth inhibition by MTT assay; format: functional, cell-based
HT-29 = test: Antiproliferative activity against human HT-29 cells assessed as cell growth inhibition measured after 48 hrs by MTT assay; format: functional, cell-based; conditions: HT-29, 48 h
HCT-116 [8] = test: Antiproliferative activity against human HCT-116 cells assessed as cell growth inhibition measured after 48 hrs by MTT assay; format: functional, cell-based; conditions: HCT-116, 48 h
[9] = Cytotoxicity against human A875 cells assessed as cell growth inhibition measured after 72 hrs by MTT assay; format: functional, cell-based; conditions: A875, 72 h
[10] = Cytotoxicity against green monkey MARC145 cells assessed as cell growth inhibition measured after 72 hrs by MTT assay; format: toxicity, cell-based, Chlorocebus aethiops
HepG2 [11] = test: Cytotoxicity against human HepG2 cells assessed as cell growth inhibition measured after 72 hrs by MTT assay; format: functional, cell-based; conditions: HepG2, 72 h
HEp-2 = test: Cytotoxicity against human HEp-2 cells assessed as cell growth inhibition by MTT assay; format: functional, cell-based
HeLa [12] = test: Cytotoxicity against human HeLa cells assessed as cell growth inhibition by MTT assay; format: functional, cell-based
MCF7 [13] = test: Cytotoxicity against human MCF7 cells assessed as cell growth inhibition by MTT assay; format: functional, cell-based
MDA-MB-231 [14] = test: Antiproliferative activity against human MDA-MB-231 cells assessed as cell growth inhibition measured after 48 hrs by SRB assay; format: functional, cell-based; conditions: MDA-MB-231, time 48 hrs
MCF7 [15] = test: Antiproliferative activity against human MCF7 cells assessed as cell growth inhibition measured after 48 hrs by SRB assay; format: functional, cell-based; conditions: MCF7, time 48 hrs
SW1990 = test: Anticancer activity against human SW1990 cells assessed as cell growth inhibition measured after 72 hrs by Cell-Titre Glo luminescent cell viability assay; format: functional, cell-based; conditions: SW1990, 72 h
ASPC1 = test: Anticancer activity against human ASPC1 cells assessed as cell growth inhibition measured after 72 hrs by Cell-Titre Glo luminescent cell viability assay; format: functional, cell-based; conditions: ASPC1, 72 h
HCT-116 [16] = test: Antiproliferative activity against human HCT-116 cells assessed as cell growth inhibition by MTT assay; format: functional, cell-based
SK-OV-3 = test: Antiproliferative activity against human SK-OV-3 cells assessed as cell growth inhibition by MTT assay; format: functional, cell-based
K562 = test: Antiproliferative activity against human K562 cells assessed as cell growth inhibition by MTT assay; format: functional, cell-based
MCF7 [17] = test: Cytotoxicity against human MCF7 cells assessed as cell growth inhibition measured after 48 hrs by MTT assay; format: functional, cell-based; conditions: MCF7, 48 h
[18] = Cytotoxicity against human RPE-1 cells assessed as cell growth inhibition measured after 48 hrs by MTT assay; format: toxicity, cell-based; conditions: RPE-1 (TERT-RPE1) cells
HCT-116 [19] = test: Cytotoxicity against human HCT-116 cells assessed as cell growth inhibition measured after 48 hrs by MTT assay; format: functional, cell-based; conditions: HCT-116, 48 h
HepG2 [20] = test: Cytotoxicity against human HepG2 cells assessed as cell growth inhibition measured after 48 hrs by MTT assay; format: functional, cell-based; conditions: HepG2, 48 h
HeLa [21] = test: Cytotoxicity against human HeLa cells assessed as cell growth inhibition measured after 72 hrs by MTT assay; format: functional, cell-based; conditions: pooled result: one value given for 3 cell lines, strains, targets or settings
MCF7 [22] = test: Cytotoxicity against human MCF7 cells assessed as cell growth inhibition measured after 72 hrs by MTT assay; format: functional, cell-based; conditions: MCF7, 72 h
MDA-MB-231 [23] = test: Cytotoxicity against human MDA-MB-231 cells assessed as cell growth inhibition measured after 72 hrs by MTT assay; format: functional, cell-based; conditions: MDA-MB-231, 72 h
A498 = test: Antiproliferative activity against human A498 cells assessed as cell growth inhibition measured after 72 hrs by SRB assay; format: functional, cell-based; conditions: A498, 72 h
A549 [24] = test: Antiproliferative activity against human A549 cells assessed as cell growth inhibition measured after 72 hrs by SRB assay; format: functional, cell-based; conditions: A549, 72 h
A549 [25] = test: Cytotoxicity against human A549 cells assessed as cell growth inhibition measured after 24 hrs by MTT assay; format: functional, cell-based; conditions: A549, 24 h, pooled result: one value given for 4 cell lines, strains, targets or settings

Question: For c1cncc(C2c3[nH]c4ccccc4c3C(c3cccnc3)c3[nH]c4ccccc4c32)c1 (stereo unspecified), which IC50 (MCF7 [1]) is on record?
Answer: 4 µM

Question: What about the IC50 at 24 h [2] of the same molecule?
Answer: 80 µM

Question: What about the IC50 [3] of the same molecule?
Answer: 2.7 µM

Question: With Oc1c(C(c2ccc(Br)cc2)N2CCCC2)ccc2[nH]c3ccccc3c12 (stereo unspecified) as the molecule, how does the IC50 (MDA-MB-231 [4]) read?
Answer: 5.4 µM

Question: And the IC50 (HeLa [5])?
Answer: 5.4 µM

Question: With COc1ccc2[nH]c3c(C)cc(-c4cc(-c5ccc(F)cc5)nc(N)n4)c(C)c3c2c1 as the molecule, how does the IC50 (MCF7 [6]) read?
Answer: 0.1 µM

Question: And the IC50 (A549 [7])?
Answer: 0.1 µM

Question: What about the IC50 (COLO 205) of the same molecule?
Answer: 0.1 µM

Question: Which IC50 (HT-29) does the source give for COc1ccc2c(c1)[nH]c1cc(O)c(CN3CCCCC3)cc12 here?
Answer: 18 µM

Question: And the IC50 (HCT-116 [8])?
Answer: 18 µM

Question: Which IC50 [9] does the source give for Cc1c(C(=O)NCCc2c[nH]c3ccccc23)ccc2c3ccccc3n(C)c12 here?
Answer: > 53.8 µM

Question: And the IC50 at 72 h [10]?
Answer: > 53.8 µM

Question: And the IC50 (HepG2 [11])?
Answer: > 53.8 µM

Question: For O=C1c2ccsc2N=C2c3[nH]c4ccc(Br)cc4c3CCC12 (stereo unspecified), which IC50 (HEp-2) is on record?
Answer: 5.75 µM

Question: And the IC50 (HeLa [12])?
Answer: 5.75 µM

Question: What about the IC50 (MCF7 [13]) of the same molecule?
Answer: 5.75 µM

Question: Which GI50 (MDA-MB-231 [14]) does the source give for O=C(Cn1c2ccccc2c2ccccc21)NNC(c1ccc([N+](=O)[O-])cc1)N1CCNCC1 (stereo unspecified) here?
Answer: < 10 µM

Question: And the GI50 (MCF7 [15])?
Answer: < 10 µM

Question: Which results are given for CCCCCCn1c2ccccc2c2cc(/C=N/NC(=O)c3ccncc3)ccc21?
Answer: IC50 (SW1990): 3.42 µM; IC50 (ASPC1): 3.42 µM

Question: With COc1ccc2[nH]c3c(C)cc(-c4cc(-c5ccc(C(F)(F)F)cc5)nc(N)n4)c(C)c3c2c1 as the molecule, how does the IC50 (MCF7 [6]) read?
Answer: 0.1 µM

Question: And the IC50 (A549 [7])?
Answer: 0.1 µM

Question: What about the IC50 (COLO 205) of the same molecule?
Answer: 0.1 µM

Question: Which results are given for O=Cc1c[nH]c2c1ccc1c3ccccc3n(CCCC(=O)NCCn3ccn4c5ccc(C(F)(F)F)cc5cc34)c12?
Answer: IC50 (HCT-116 [16]): 9 µM; IC50 (MDA-MB-231 [4]): 9 µM; IC50 (MCF7 [6]): 9 µM; IC50 (SK-OV-3): 9 µM; IC50 (K562): 9 µM

Question: What does the source list for COc1ccc(C(NNC(=O)Cn2c3ccccc3c3ccccc32)N2CCNCC2)cc1 (stereo unspecified)?
Answer: GI50 (MDA-MB-231 [14]): < 10 µM; GI50 (MCF7 [15]): < 10 µM

Question: For O=Cc1c[nH]c2c1ccc1c3ccccc3n(CCCC(=O)NCCn3ccn4c5ccccc5cc34)c12, which IC50 (HCT-116 [16]) is on record?
Answer: 9 µM

Question: And the IC50 (MDA-MB-231 [4])?
Answer: 9 µM

Question: What about the IC50 (MCF7 [6]) of the same molecule?
Answer: 9 µM

Question: What about the IC50 (SK-OV-3) of the same molecule?
Answer: 9 µM

Question: What about the IC50 (K562) of the same molecule?
Answer: 9 µM

Question: Which IC50 (MCF7 [17]) does the source give for CCn1c2ccccc2c2cc(NC(=O)c3c(N)n[nH]c3Nc3ccc(Cl)cc3)ccc21 here?
Answer: 2.97 µM

Question: What about the IC50 at 48 h [18] of the same molecule?
Answer: > 100 µM

Question: What about the IC50 (HCT-116 [19]) of the same molecule?
Answer: 2.97 µM

Question: And the IC50 (HepG2 [20])?
Answer: 2.97 µM

Question: With O=C1c2ccsc2N=C2c3[nH]c4ccc(Cl)cc4c3CCC12 (stereo unspecified) as the molecule, how does the IC50 (HEp-2) read?
Answer: 3.6 µM

Question: And the IC50 (HeLa [12])?
Answer: 3.6 µM

Question: What about the IC50 (MCF7 [13]) of the same molecule?
Answer: 3.6 µM

Question: With Cc1c(C(=O)N/N=C/c2c[nH]c3ccccc23)ccc2c1[nH]c1ccccc12 as the molecule, how does the IC50 (HepG2 [11]) read?
Answer: > 13.3 µM

Question: With Cc1c(C(=O)NCCc2c[nH]c3ccccc23)ccc2c1[nH]c1ccccc12 as the molecule, how does the IC50 [9] read?
Answer: 20 µM

Question: And the IC50 at 72 h [10]?
Answer: 20 µM

Question: What about the IC50 (HepG2 [11]) of the same molecule?
Answer: 20 µM

Question: With Cc1c2ccncc2c(C)c2c1[nH]c1ccccc12 [ELLIPTECINE] as the molecule, how does the IC50 (HeLa [21]) read?
Answer: 1.05 µM

Question: What about the IC50 (MCF7 [22]) of the same molecule?
Answer: 1.05 µM

Question: What about the IC50 (MDA-MB-231 [23]) of the same molecule?
Answer: 1.05 µM

Question: What about the IC50 (HEp-2) of the same molecule?
Answer: 9.85 µM

Question: And the IC50 (HeLa [12])?
Answer: 9.85 µM

Question: What about the IC50 (A498) of the same molecule?
Answer: 1.74 µM

Question: And the IC50 (MCF7 [13])?
Answer: 9.85 µM

Question: What about the IC50 (A549 [24]) of the same molecule?
Answer: 0.85 µM

Question: And the IC50 (HepG2 [11])?
Answer: 1.05 µM

Question: Which IC50 (A549 [25]) does the source give for COc1cc([C@@H]2c3cc4c(cc3[C@@H](O[C@@H]3O[C@@H]5CO[C@@H](C)O[C@H]5[C@H](O)[C@H]3O)[C@H]3COC(=O)[C@H]23)OCO4)cc(OC)c1O [ETOPOSIDE] here?
Answer: 1.97 µM

Question: Which IC50 [9] does the source give for O=c1[nH]cc(F)c(=O)[nH]1 [FLUOROURACIL] here?
Answer: 72.3 µM

Question: And the IC50 at 72 h [10]?
Answer: 72.3 µM

Question: What about the IC50 (HepG2 [11]) of the same molecule?
Answer: 72.3 µM

Question: What does the source list for Nc1ccn([C@@H]2O[C@H](CO)[C@@H](O)C2(F)F)c(=O)n1 [GEMCITABINE]?
Answer: IC50 (SW1990): 40.2 µM; IC50 (ASPC1): 35.1 µM
